Experimental data: ChEMBL document CHEMBL5325403, “Benzenesulfonyl thiazoloimines as unique multitargeting antibacterial agents towards Enterococcus faecalis” (Eur J Med Chem, 2023)
In brackets after ≈: the same amount, converted by molar mass.

Key:
Format in all cases: functional
Staphylococcus aureus [1] = experiment: Antibacterial activity against methicillin-resistant Staphylococcus aureus N315 assessed as inhibition of bacterial growth by continuous dilution method
Enterococcus faecalis = experiment: Antibacterial activity against Enterococcus faecalis assessed as inhibition of bacterial growth by continuous dilution method
Staphylococcus aureus [2] = experiment: Antibacterial activity against Staphylococcus aureus assessed as inhibition of bacterial growth by continuous dilution method
Staphylococcus aureus [3] = experiment: Antibacterial activity against Staphylococcus aureus ATCC 25923 assessed as inhibition of bacterial growth by continuous dilution method
Staphylococcus aureus [4] = experiment: Antibacterial activity against Staphylococcus aureus ATCC 29213 assessed as inhibition of bacterial growth by continuous dilution method
Klebsiella pneumoniae = experiment: Antibacterial activity against Klebsiella pneumoniae assessed as inhibition of bacterial growth by continuous dilution method
Escherichia coli [5] = experiment: Antibacterial activity against Escherichia coli assessed as inhibition of bacterial growth by continuous dilution method
Pseudomonas aeruginosa [6] = experiment: Antibacterial activity against Pseudomonas aeruginosa assessed as inhibition of bacterial growth by continuous dilution method
Acinetobacter baumannii = experiment: Antibacterial activity against Acinetobacter baumannii assessed as inhibition of bacterial growth by continuous dilution method
Pseudomonas aeruginosa [7] = experiment: Antibacterial activity against Pseudomonas aeruginosa ATCC 27853 assessed as inhibition of bacterial growth by continuous dilution method
Escherichia coli [8] = experiment: Antibacterial activity against Escherichia coli ATCC 25922 assessed as inhibition of bacterial growth by continuous dilution method

| SMILES | MIC (Staphylococcus aureus [1]) | MIC (Enterococcus faecalis) | MIC (Staphylococcus aureus [2]) | MIC (Staphylococcus aureus [3]) | MIC (Staphylococcus aureus [4]) | MIC (Klebsiella pneumoniae) | MIC (Escherichia coli [5]) | MIC (Pseudomonas aeruginosa [6]) | MIC (Acinetobacter baumannii) | MIC (Pseudomonas aeruginosa [7]) | MIC (Escherichia coli [8]) |
| --- | --- | --- | --- | --- | --- | --- | --- | --- | --- | --- | --- |
| CC(=O)Nc1ccc(S(=O)(=O)C/C(=N/OCC#N)c2nccs2)cc1 | 64 mg/L (≈ 169 µM) | 64 mg/L (≈ 169 µM) | 64 mg/L (≈ 169 µM) | 128 mg/L (≈ 338 µM) | 64 mg/L (≈ 169 µM) | 64 mg/L (≈ 169 µM) | 32 mg/L (≈ 84.6 µM) | 128 mg/L (≈ 338 µM) | 256 mg/L (≈ 676 µM) | 64 mg/L (≈ 169 µM) | 32 mg/L (≈ 84.6 µM) |
| C#CCO/N=C(/CS(=O)(=O)c1ccc(N)cc1)c1nccs1 | 64 mg/L (≈ 191 µM) | 64 mg/L (≈ 191 µM) | 64 mg/L (≈ 191 µM) | 32 mg/L (≈ 95.4 µM) | 64 mg/L (≈ 191 µM) | 32 mg/L (≈ 95.4 µM) | 32 mg/L (≈ 95.4 µM) | 64 mg/L (≈ 191 µM) | 64 mg/L (≈ 191 µM) | 32 mg/L (≈ 95.4 µM) | 32 mg/L (≈ 95.4 µM) |
| CC(=O)Nc1ccc(S(=O)(=O)C/C(=N/NC(=O)c2ccccc2O)c2nccs2)cc1 | 64 mg/L (≈ 140 µM) | 128 mg/L (≈ 279 µM) | 128 mg/L (≈ 279 µM) | 64 mg/L (≈ 140 µM) | 256 mg/L (≈ 558 µM) | 128 mg/L (≈ 279 µM) | 128 mg/L (≈ 279 µM) | 256 mg/L (≈ 558 µM) | 128 mg/L (≈ 279 µM) | 16 mg/L (≈ 34.9 µM) | 64 mg/L (≈ 140 µM) |
| Nc1ccc(S(=O)(=O)Nc2nccs2)cc1 [SULFATHIAZOLE] | 64 mg/L (≈ 251 µM) | 128 mg/L (≈ 501 µM) | 128 mg/L (≈ 501 µM) | 64 mg/L (≈ 251 µM) | 128 mg/L (≈ 501 µM) | 128 mg/L (≈ 501 µM) | 256 mg/L (≈ 1000 µM) | 128 mg/L (≈ 501 µM) | 128 mg/L (≈ 501 µM) | 512 mg/L (≈ 2010 µM) | 128 mg/L (≈ 501 µM) |
| CCCCCCO/N=C(/CS(=O)(=O)c1ccc(NC(C)=O)cc1)c1nccs1 | 32 mg/L (≈ 75.6 µM) | 32 mg/L (≈ 75.6 µM) | 64 mg/L (≈ 151 µM) | 64 mg/L (≈ 151 µM) | 128 mg/L (≈ 302 µM) | 64 mg/L (≈ 151 µM) | 32 mg/L (≈ 75.6 µM) | 32 mg/L (≈ 75.6 µM) | 128 mg/L (≈ 302 µM) | 32 mg/L (≈ 75.6 µM) | 8 mg/L (≈ 18.9 µM) |
| CC(=O)Nc1ccc(S(=O)(=O)/C(=C\c2ccc(F)cc2)C(=O)c2nccs2)cc1 | 128 mg/L (≈ 297 µM) | 128 mg/L (≈ 297 µM) | 128 mg/L (≈ 297 µM) | 256 mg/L (≈ 595 µM) | 128 mg/L (≈ 297 µM) | 128 mg/L (≈ 297 µM) | 128 mg/L (≈ 297 µM) | 256 mg/L (≈ 595 µM) | 64 mg/L (≈ 149 µM) | 64 mg/L (≈ 149 µM) | 64 mg/L (≈ 149 µM) |
| CC(=O)Nc1ccc(S(=O)(=O)C/C(=N/Nc2ccc([N+](=O)[O-])cc2)c2nccs2)cc1 | 256 mg/L (≈ 557 µM) | 256 mg/L (≈ 557 µM) | 32 mg/L (≈ 69.6 µM) | 256 mg/L (≈ 557 µM) | 256 mg/L (≈ 557 µM) | 256 mg/L (≈ 557 µM) | 64 mg/L (≈ 139 µM) | 32 mg/L (≈ 69.6 µM) | 256 mg/L (≈ 557 µM) | 64 mg/L (≈ 139 µM) | 32 mg/L (≈ 69.6 µM) |
| CC(=O)Nc1ccc(S(=O)(=O)C/C(=N/Nc2ccc([N+](=O)[O-])cc2[N+](=O)[O-])c2nccs2)cc1 | 8 mg/L (≈ 15.9 µM) | 2 mg/L (≈ 3.96 µM) | 2 mg/L (≈ 3.96 µM) | 4 mg/L (≈ 7.93 µM) | 32 mg/L (≈ 63.4 µM) | 64 mg/L (≈ 127 µM) | 64 mg/L (≈ 127 µM) | 64 mg/L (≈ 127 µM) | 4 mg/L (≈ 7.93 µM) | 32 mg/L (≈ 63.4 µM) | 4 mg/L (≈ 7.93 µM) |
| CC(=O)Nc1ccc(S(=O)(=O)C/C(=N/O)c2nccs2)cc1 | 64 mg/L (≈ 189 µM) | 64 mg/L (≈ 189 µM) | 128 mg/L (≈ 377 µM) | 128 mg/L (≈ 377 µM) | 64 mg/L (≈ 189 µM) | 64 mg/L (≈ 189 µM) | 64 mg/L (≈ 189 µM) | 128 mg/L (≈ 377 µM) | 256 mg/L (≈ 754 µM) | 64 mg/L (≈ 189 µM) | 64 mg/L (≈ 189 µM) |
| C=CCO/N=C(/CS(=O)(=O)c1ccc(N)cc1)c1nccs1 | 128 mg/L (≈ 379 µM) | 16 mg/L (≈ 47.4 µM) | 64 mg/L (≈ 190 µM) | 32 mg/L (≈ 94.8 µM) | 32 mg/L (≈ 94.8 µM) | 32 mg/L (≈ 94.8 µM) | 32 mg/L (≈ 94.8 µM) | 64 mg/L (≈ 190 µM) | 64 mg/L (≈ 190 µM) | 16 mg/L (≈ 47.4 µM) | 16 mg/L (≈ 47.4 µM) |
| CC(=O)Nc1ccc(S(=O)(=O)/C(=C\c2ccc(C#N)cc2)C(=O)c2nccs2)cc1 | 8 mg/L (≈ 18.3 µM) | 8 mg/L (≈ 18.3 µM) | 8 mg/L (≈ 18.3 µM) | 32 mg/L (≈ 73.1 µM) | 8 mg/L (≈ 18.3 µM) | 128 mg/L (≈ 293 µM) | 32 mg/L (≈ 73.1 µM) | 128 mg/L (≈ 293 µM) | 128 mg/L (≈ 293 µM) | 64 mg/L (≈ 146 µM) | 16 mg/L (≈ 36.6 µM) |
| Nc1ccc(S(=O)(=O)C/C(=N/OCc2ccc(Cl)cc2Cl)c2nccs2)cc1 | 64 mg/L (≈ 140 µM) | 16 mg/L (≈ 35.1 µM) | 64 mg/L (≈ 140 µM) | 64 mg/L (≈ 140 µM) | 64 mg/L (≈ 140 µM) | 32 mg/L (≈ 70.1 µM) | 32 mg/L (≈ 70.1 µM) | 64 mg/L (≈ 140 µM) | 64 mg/L (≈ 140 µM) | 16 mg/L (≈ 35.1 µM) | 16 mg/L (≈ 35.1 µM) |
| CC(=O)Nc1ccc(S(=O)(=O)C/C(=N/OCc2ccc(Cl)cc2)c2nccs2)cc1 | 32 mg/L (≈ 69 µM) | 64 mg/L (≈ 138 µM) | 128 mg/L (≈ 276 µM) | 64 mg/L (≈ 138 µM) | 64 mg/L (≈ 138 µM) | 32 mg/L (≈ 69 µM) | 64 mg/L (≈ 138 µM) | 64 mg/L (≈ 138 µM) | 128 mg/L (≈ 276 µM) | 32 mg/L (≈ 69 µM) | 8 mg/L (≈ 17.2 µM) |
| C#CCO/N=C(/CS(=O)(=O)c1ccc(NC(C)=O)cc1)c1nccs1 | 32 mg/L (≈ 84.8 µM) | 64 mg/L (≈ 170 µM) | 64 mg/L (≈ 170 µM) | 64 mg/L (≈ 170 µM) | 64 mg/L (≈ 170 µM) | 32 mg/L (≈ 84.8 µM) | 32 mg/L (≈ 84.8 µM) | 64 mg/L (≈ 170 µM) | 128 mg/L (≈ 339 µM) | 64 mg/L (≈ 170 µM) | 16 mg/L (≈ 42.4 µM) |
